Experimental data taken from patent US10196357B2, “Biaryl compositions and methods for modulating a kinase cascade” (Athenex, Inc., priority 2007, dated 2019).

Key:
[1] = system: HT29 cell line; experiment: BrdU cell growth inhibition, HT29; assay type: cell-based, human; conditions: Homo sapiens; for GI50: HT-29, HT29 (Colon) cells, read-out: GI50; for activity at 0.05 µM / activity at 0.5 µM / activity at 5 µM: HT-29, read-out: HT-29 Growth, % of Control Mean, n = 3; for activity at 0.05 µM: 50 nM; for activity at 0.5 µM: 500 nM
Outline: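 HT29 colon carcinoma cells treated with compounds diluted from 20 mM DMSO stocks into DMEM/10% FBS. Proliferation read as colorimetric BrdU incorporation ELISA; GI calculated relative to untreated cells at time 0 and control cells at day n, with GI50 extrapolated. Net cell loss below time-0 level scored as cytotoxicity.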

[2] = system: c-Src 3T3 cells; experiment: BrdU cell growth inhibition, c-Src 3T3; assay type: cell-based, mouse; conditions: Mus musculus; for activity at 0.1 µM / activity at 1 µM / activity at 10 µM: NIH3T3, read-out: c-Src 3T3 Growth, % of Control Mean, n = 3; for activity at 0.1 µM: 100 nM; for GI50: c-Src 3T3 (c-Src527F/NIH3T3) cells, read-out: GI50
Outline: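 c-Src 3T3 cells on poly-D-lysine plates in DMEM with 2% FBS, L-glutamine, pyruvate and 10 mM HEPES. Compounds came from 20 mM DMSO stocks diluted in DMEM/10% FBS. Proliferation was read by colorimetric BrdU-incorporation ELISA, and GI50 was extrapolated from growth relative to time-zero and untreated controls.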

[3] = system: colon tumor cell line KM 12; experiment: tumor growth inhibition, KM12; assay type: cell-based; conditions: Homo sapiens; KM12 cells
Description: (§1) These GI50's were determined using the standard tumor growth inhibition assays, similar to that described in detail for the HT29 cell line above, and the following cell lines: colon tumor cell lines KM 12, lung cancer cell line H460 and lung cancer cell line A549 (all are NCI standard tumor cell lines).

[4] = system: lung cancer cell line H460; experiment: tumor growth inhibition, H460; assay type: cell-based; conditions: Homo sapiens, NCI-H460; H460 cells
Description: as §1

[5] = system: lung cancer cell line A549; experiment: tumor growth inhibition, A549; assay type: cell-based, Human; conditions: Homo sapiens
Description: Growth Inhibition. […] T1 values≤T0 values were designated as T, cytotoxicity.

[6] = noise-induced hearing loss; assay type: in vivo, Chinchillas; conditions: chinchilla ears treated on round window, 4 kHz band noise 105 dB SPL 4 h, days 1, 7, 21; relative to control ears
Description: Chinchillas (N=6) were used in studies of noise-induced hearing loss. The animals' hearing sensitivity was measured using standard electrophysical techniques before the experimental manipulation. […] Animals were anesthetized, the auditory bullae were opened, and the left and right cochleas were visualized. The round window leading to the scala tympani of the cochlea was used as the access point for drug application. Animals were treated with KX1-004, KX1-141, KX1-329 or KX2-328 (a non-ATP competitive inhibitor from AstraZeneca, KX2-238), emulsified in DMSO, in 1000 mM of saline solution, which was placed on the round window of one ear. KX1-004:
A control solution of 3 mM DMSO in 1000 mM of saline solution was placed on the round window of the other ear. The solution was allowed to set on the round window for 30 minutes, then the auditory bullae were closed. […] Following the noise exposure, the animals' hearing was tested at day 1, day 7, and day 21 to determine evoked potential threshold shifts. Permanent threshold shift was assessed at day 21.
FIGS. 10-12 show the average threshold shifts for animals treated with KX1-004, KX1-141, KX1-329 or KX2-328.

[7] = cisplatin-induced hearing loss; assay type: in vivo; conditions: guinea pigs, subcutaneous treatment prior to cisplatin
Description: The effects of high level noise and ototoxic drugs, such as cisplatin or the class of aminoglycosides, share several common features in the inner ear. First, the noise and/or drugs alter the free radical/antioxidant levels in the cochlea (inner ear). […] Guinea pigs (N=7) were used in studies of cisplatin-induced hearing loss. The animals' hearing sensitivity was measured using standard electrophysical techniques before the experimental manipulation. […] Animals were anesthetized and treated with cisplatin. Subsequently, the animals' hearing was tested to determine evoked potential threshold shifts.
KX1 is CH65. Animals were treated subcutaneously with KX1-004 prior to the cisplatin-induced hearing loss.

[8] = system: 769-P; experiment: renal tumor cell growth inhibition, 769-P; assay type: cell-based, Human; conditions: Homo sapiens
Description: (§2) These GI50s were determined using standard tumor growth inhibition assays, similar to those described in detail in this Example 7.

[9] = system: 786-O; experiment: renal tumor cell growth inhibition, 786-O; assay type: cell-based, Human; conditions: Homo sapiens, 786-0, renal cell adenocarcinoma
Description: as §2

[10] = system: Caki-2; experiment: renal tumor cell growth inhibition, Caki-2; assay type: cell-based, Human; conditions: Homo sapiens; Caki-2, clear cell carcinoma
Description: as §2

[11] = system: ACHN; experiment: renal tumor cell growth inhibition, ACHN; assay type: cell-based, Human; conditions: Homo sapiens, renal cell adenocarcinoma
Description: as §2

[12] = system: HuH7; experiment: MTT growth inhibition, HuH7; assay type: cell-based, human; conditions: HuH7, 8.0×10^3 cells/wells, […] FBS @ 78 Hr
Description: (§3) Samples of the test compounds were formulated in 100% DMSO to obtain 20 mM stock solutions; stored @ 4° C. The IC50s and IC80s were determined as described below. Huh7, WRL-68, PLC/PRF/5, Hep 3B, and Hep G2 human cancer lines were routinely cultured and maintained in a basal medium containing 2% FBS @ 37° C., 5% CO2. […] The assay medium was basal medium/1.5% FBS. Cells were cultured overnight in 96-well plates at 37° C., 5% CO2 prior to KX2-391. MSA and Dasatinib addition. […] 10 μL of 20× dilutions were added to the appropriate wells (n=3) containing 190 μL cancer cell line; 6561 nM to 0.012 nM range of final concentrations. Vehicle control contained cells, no sample. Medium control contained cells, no sample, 0.03% DMSO (highest DMSO concentration present in samples). […] On day 3, 10 μL MTT (5 mg/mL) were added to each well. Cells were incubated in the presence of MTT for 4 hours @ 37° C., 5% CO2. […] Cells were then incubated overnight @ 37°, 5% CO2. OD570 measurements were taken using BioTek Synergy HT multiplatform microplate reader. Growth inhibition curves IC50s and IC80s were determined using GraphPad Prism 5 statistical software.

[13] = system: WRL-68; experiment: MTT growth inhibition, WRL-68; assay type: cell-based, human; conditions: WRL-68, 8.0×10^3 cells/wells, […] FBS @ 78 Hr
Description: (§4) Samples of the test compounds were formulated in 100% DMSO to obtain 20 mM stock solutions; stored @ 4° C. The IC50s and IC80s were determined as described below. Huh7, WRL-68, PLC/PRF/5, Hep 3B, and Hep G2 human cancer lines were routinely cultured and maintained in a basal medium containing 2% FBS @ 37° C., 5% CO2. […] Vehicle control contained cells, no sample. Medium control contained cells, no sample, 0.03% DMSO (highest DMSO concentration present in samples). […] On day 3, 10 μL MTT (5 mg/mL) were added to each well. Cells were incubated in the presence of MTT for 4 hours @ 37° C., 5% CO2. […] Cells were then incubated overnight @ 37°, 5% CO2. OD570 measurements were taken using BioTek Synergy HT multiplatform microplate reader. Growth inhibition curves IC50s and IC80s were determined using GraphPad Prism 5 statistical software.

[14] = system: PLC/PRF/5; experiment: MTT growth inhibition, PLC/PRF/5; assay type: cell-based, human; conditions: PLC/PRF/5, 8.0×10^3 cells/wells, […] FBS @ 78 Hr
Description: as §4

[15] = system: Hep 3B; experiment: MTT growth inhibition, Hep 3B; assay type: cell-based, human; conditions: Hep 3B, 8.0×10^3 cells/wells, […] FBS @ 78 Hr
Description: as §4

[16] = system: Hep G2; experiment: MTT growth inhibition, Hep G2; assay type: cell-based, human; conditions: Hep G2, 8.0×10^3 cells/wells, […] FBS @ 78 Hr
Description: as §3

[17] = system: wild-type aywl strain of HBV; experiment: HBV primary assay (HepG2-2.2.15 antiviral assay); assay type: cell-based; conditions: Test Concentration 10 μM
Description: The HBV primary assay developed was conducted similarly to that described by Korba et al., (Antiviral Res. 15: 217-228 (1991) and Antiviral Res. 19: 55-70 (1992)) with the exception that viral DNA detection and quantification have been improved and simplified (Korba et al., Antiviral Res. 19: 55-70 (1992)).
Compound 38 (KX2-377), Compound 136 (KX2-393), and Compound 137 (KX2-394) were evaluated for potential anti-HBV activity using a single high-test concentration of compounds in the standardized HepG2-2.2.15 antiviral assay. The HepG2-2.2.15 is a stable cell line producing high levels of the wild-type aywl strain of HBV. Briefly, HepG2-2.2.15 cells were plated in 96-well plates. Only the interior wells were utilized to reduce “edge effects” observed during cell culture; the exterior wells are filled with complete medium to help minimize sample evaporation. On the following day, the confluent monolayer of HepG2-2.2.15 cells was washed and the medium is replaced with complete medium containing test concentrations of a test article in triplicate. 3TC was used as the positive control, while media alone was added to cells as the untreated control. Three days later the culture medium was replaced with fresh medium containing the appropriately diluted drug. Six days following the initial administration of the test compound, the cell culture supernatant was collected, treated with pronase and DNAse and then used in a real-time quantitative TaqMan PCR assay for direct measurement of HBV DNA copies using an ABI Prism 7900 sequence detection system (Applied Biosystems, Foster City, Calif.).
(§5) The antiviral activity of each test compound was calculated by comparing its HBV DNA copies against that of the untreated control cells (100%) to derive percent inhibition level. After removing the supernatant, the remaining cells were subject to CellTiter 96 Aqueous One (Promega, Madison, Wis.) solution cell proliferation assay (MTS-based) to measure cell viability. Cytotoxicity of the compound was determined by comparing its cell viability with that of the untreated cell control to derive percentage of the cell control.

[18] = system: HepG2-2.2.15 cells; experiment: cytotoxicity in HBV primary assay (MTS); assay type: cell-based; conditions: Test Concentration 10 μM
Description: as §5

Row | Molecule | GI50 [1] [nM] | activity at 0.05 µM [1] [%] | activity at 0.5 µM [1] [%] | activity at 5 µM [1] [%] | activity at 0.1 µM [2] [%] | activity at 1 µM [2] [%] | activity at 10 µM [2] [%] | GI50 [2] [nM] | GI50 [3] [nM] | GI50 [4] [nM] | melting point [°C] | other results
1 | O=C(Cc1ccc(-c2ccccc2)cc1)NCc1cccc(F)c1 [KX1-305, N(3-fluoro-benzyl)-4-biphenylacetamide] | 877 | 108 | < 0 | < 0 | 35 | < 0 | < 0 | 349 | 410 | 890 | 170 to 172 | GI50 ([5]; A549 cells): 1030 nM
2 | O=C(Cc1ccc(-c2ccccc2)cc1)NCc1cccc(O)c1 [KX1-136, N(3-hydroxy-benzyl)-4-biphenylacetamide] | 484 | 83.1 | < 0 | < 0 | 46.3 | < 0 | < 0 | 53 | 105 | 280 | 169 to 170 | GI50 ([5]; A549 (Lung) cells): 330 nM
3 | KX1-004 |  |  |  |  |  |  |  |  |  |  |  | average dB threshold shifts [6]: lower; protection against cisplatin-induced hearing loss [7]: protected against ciplatin-induced hearing loss
4 | CN1CCN(CCOc2ccc(-c3ccc(CC(=O)NCc4cccc(F)c4)cc3)c(F)c2)CC1 [KX2-402] |  |  |  |  |  |  |  |  |  |  |  | GI50 [8]: 8.4 nM; GI50 [9]: 57.7 nM; GI50 [10]: 5 nM; GI50 [11]: 6.9 nM
5 | O=C(Cc1ccc(-c2ccc(OCCN3CCOCC3)cc2)cn1)NCc1ccccc1 [KX2-391-MSA] |  |  |  |  |  |  |  |  |  |  |  | IC50 [12]: 9 nM; IC80 [12]: 23 nM; IC50 [13]: 15 nM; IC80 [13]: 25 nM; IC50 [14]: 13 nM; IC80 [14]: 24 nM; IC50 [15]: 26 nM; IC80 [15]: 88 nM; IC50 [16]: 60 nM; IC80 [16]: 3660 nM
6 | Cl.Cl.O=C(Cc1ccc(-c2ccc(OCCN3CCOCC3)cc2)cn1)NCc1ccccc1 [KXO1:2HCl] |  |  |  |  |  |  |  |  |  |  |  | Antiviral Activity Percent inhibition of cell control [17]: 48.2%; Interpretation [17]: Cytotoxic; Cytotoxicity Percent of cell control [18]: 51.3%
